# According to patent US20090100532A1, “TRANSGENIC MICE EXPRESSING HYPERSENSITIVE NICOTINIC RECEPTORS” (CALIFORNIA INSTITUTE OF TECHNOLOGY, priority 2007, published 2009):
# Values joined by “and” are separate entries in the source; they are usually repeats but may differ in a detail not shown here. Identical values can stand only once.
# Columns and labels:
# [1] = in vivo; cited from earlier work
# α6^L9′S mice = conditions: mouse, in vivo
# Protocol: Locomotor Activity. Mice used to study locomotion were eight to sixteen weeks old by the beginning of an experiment, and were back-crossed to C57BL/6 at least three times. […] Mouse horizontal locomotor activity was measured with an infrared photobeam activity cage system (San Diego Instruments; San Diego, Calif.). Ambulation events were recorded when two contiguous photobeams were broken in succession. Acute locomotor activity in response to nicotinic ligands or other agents was studied by recording ambulation events during four 15 sec intervals per minute for a designated number of minutes. For most experiments, groups of eight mice were placed in the activity cages (18×28 cm) and their baseline level of activity was recorded for eight minutes. Mice were removed from their cage, injected (100 μl per 25 g body mass), and returned to the cage within 15 sec. […] For generation of locomotor activity concentration-response relationship profiles, a group of mice was administered saline and, after five to eight days off, each successive dose of drug. […] For 48 h home cage monitoring, mice were isolated in their own cage and habituated to the test room and cage for 24 h. Following this, locomotor activity was recorded in 15 min intervals for 48 h.
# [2] = target: αCtxMII-resistant receptors (Mus musculus, UniProt O70174+Q9ERK7)
# αCtxMII-resistant receptors, sequence (O70174 31-629, change not shown): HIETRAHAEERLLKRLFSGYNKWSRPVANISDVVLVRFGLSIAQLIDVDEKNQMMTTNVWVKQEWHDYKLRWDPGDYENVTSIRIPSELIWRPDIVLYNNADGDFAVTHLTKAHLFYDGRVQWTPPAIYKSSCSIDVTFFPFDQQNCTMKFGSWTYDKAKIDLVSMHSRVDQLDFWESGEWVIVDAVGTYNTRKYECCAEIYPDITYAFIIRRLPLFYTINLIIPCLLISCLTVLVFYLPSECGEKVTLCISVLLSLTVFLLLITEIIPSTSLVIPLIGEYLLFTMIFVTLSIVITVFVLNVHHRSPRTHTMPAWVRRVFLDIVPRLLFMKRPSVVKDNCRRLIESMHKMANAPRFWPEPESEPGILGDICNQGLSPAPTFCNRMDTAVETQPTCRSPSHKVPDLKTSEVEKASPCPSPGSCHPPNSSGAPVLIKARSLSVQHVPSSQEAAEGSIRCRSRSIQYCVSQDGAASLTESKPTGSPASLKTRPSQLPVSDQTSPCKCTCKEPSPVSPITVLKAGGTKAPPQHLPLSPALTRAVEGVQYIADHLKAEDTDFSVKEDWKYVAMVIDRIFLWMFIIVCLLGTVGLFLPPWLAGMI
# αCtxMII-resistant receptors, sequence (Q9ERK7 26-501, change not shown): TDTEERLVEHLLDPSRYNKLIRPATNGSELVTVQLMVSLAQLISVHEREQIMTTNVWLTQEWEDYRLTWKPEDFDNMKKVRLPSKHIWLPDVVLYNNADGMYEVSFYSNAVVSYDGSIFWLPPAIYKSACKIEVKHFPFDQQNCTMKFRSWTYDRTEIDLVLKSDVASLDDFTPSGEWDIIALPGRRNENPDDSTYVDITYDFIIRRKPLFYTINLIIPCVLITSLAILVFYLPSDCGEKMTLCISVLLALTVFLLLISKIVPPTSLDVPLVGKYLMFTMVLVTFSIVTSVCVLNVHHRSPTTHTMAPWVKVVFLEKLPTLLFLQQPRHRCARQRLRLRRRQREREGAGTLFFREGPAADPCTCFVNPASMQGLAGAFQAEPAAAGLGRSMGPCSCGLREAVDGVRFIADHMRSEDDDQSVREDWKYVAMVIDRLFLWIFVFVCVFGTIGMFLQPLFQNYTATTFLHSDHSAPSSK
# [3] = system: substantia nigra DA and GABA neurons
# [4] = target: hypersensitive nicotinic receptors in α6L9′S VTA DA neurons (Mus musculus, UniProt Q9ERK7+Q9R0W9, L280S); format: cell-based
# hypersensitive nicotinic receptors in α6L9′S VTA DA neurons, sequence (Q9ERK7 whole entry, looked up, stated change not applied): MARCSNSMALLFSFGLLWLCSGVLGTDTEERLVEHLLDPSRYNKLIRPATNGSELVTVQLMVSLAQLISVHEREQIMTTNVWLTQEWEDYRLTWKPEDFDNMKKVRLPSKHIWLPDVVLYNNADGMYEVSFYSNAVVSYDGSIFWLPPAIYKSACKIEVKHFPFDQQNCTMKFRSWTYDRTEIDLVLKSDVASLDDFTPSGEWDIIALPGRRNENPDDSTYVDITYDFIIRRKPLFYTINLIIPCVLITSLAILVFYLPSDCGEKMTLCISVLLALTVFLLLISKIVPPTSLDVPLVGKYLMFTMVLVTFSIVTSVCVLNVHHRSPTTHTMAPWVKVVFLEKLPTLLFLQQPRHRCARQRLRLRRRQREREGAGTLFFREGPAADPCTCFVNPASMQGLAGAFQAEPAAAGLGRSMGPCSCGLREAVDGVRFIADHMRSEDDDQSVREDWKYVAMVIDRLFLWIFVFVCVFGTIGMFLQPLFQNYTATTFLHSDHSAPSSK
# hypersensitive nicotinic receptors in α6L9′S VTA DA neurons, sequence (Q9R0W9 whole entry, looked up, stated change not applied): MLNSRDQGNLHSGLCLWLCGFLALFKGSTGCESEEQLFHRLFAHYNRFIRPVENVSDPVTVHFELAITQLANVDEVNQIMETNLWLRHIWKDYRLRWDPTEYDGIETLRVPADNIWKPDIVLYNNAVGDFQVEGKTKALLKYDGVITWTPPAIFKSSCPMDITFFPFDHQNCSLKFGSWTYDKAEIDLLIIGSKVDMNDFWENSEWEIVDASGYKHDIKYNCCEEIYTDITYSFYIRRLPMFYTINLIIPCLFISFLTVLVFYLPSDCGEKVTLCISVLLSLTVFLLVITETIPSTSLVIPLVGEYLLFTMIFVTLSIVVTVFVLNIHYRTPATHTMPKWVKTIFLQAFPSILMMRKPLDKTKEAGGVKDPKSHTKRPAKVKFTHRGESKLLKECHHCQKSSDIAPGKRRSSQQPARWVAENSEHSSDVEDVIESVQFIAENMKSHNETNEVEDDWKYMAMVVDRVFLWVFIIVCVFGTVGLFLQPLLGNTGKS
# LC neurons (α6* nAChRs) = format: cell-based, mouse
# WT and α6^L9′S mice = conditions: mouse, in vivo
# [5] = in vivo; cited from earlier work; remark: listed apart in the source
# nAChRs [6] = format: biochemical, mouse
# Protocol: (§1) Neurotransmitter Release from Striatal Synaptosomes. After a mouse was sacrificed by cervical dislocation, its brain was removed and placed immediately on an ice-cold platform and brain regions were dissected. Tissues from each mouse were homogenized in 0.5 ml of ice-cold 0.32 M sucrose buffered with 5 mM HEPES, pH 7.5. A crude synaptosomal pellet was prepared by centrifugation at 12,000 g for 20 min. The pellets were resuspended in “uptake buffer”: 128 mM NaCl, 2.4 mM KCl, 3.2 mM CaCl2, 1.2 mM KH2PO4, 1.2 mM MgSO4, 25 mM HEPES, pH 7.5, 10 mM glucose. For DA uptake, buffer was supplemented with 1 mM ascorbic acid and 0.01 mM pargyline, whereas for GABA uptake, buffer was supplemented with 1 mM aminooxyacetic acid. For [^3H]GABA uptake, synaptosomes were incubated for 10 min at 37° C. […] For DA uptake, synaptosomes were incubated at 37° C. in uptake buffer for 10 min before addition of 100 nM [^3H]dopamine (1 μCi for every 0.2 ml of synaptosomes), and the suspension was incubated for an additional 5 min.
# (§2) All experiments were conducted at room temperature using methods described previously (Nashmi et al., 2007; Salminen et al., 2007) with modifications for collection into 96-well plates. In brief, aliquots of synaptosomes (80 μl) were distributed onto filters and perfused with buffer (uptake buffer containing 0.1% bovine serum albumin and 1 μM atropine with 1 μM nomifensine (for DA release) or 0.1 μM NNC-711 [1-(2-(((diphenylmethylene)amino)oxy)ethyl)-1,2,5,6-tetrahydro-3-pyridinecarboxylic acid hydrochloride]) (for GABA release) at 0.7 ml/min for 10 min, or buffer for 5 min followed by buffer with 50 nM αCtxMII. […] Fractions (−0.1 ml) were collected for 4 min into 96-well plates every 10 sec starting from 1 min before stimulation, using a Gilson FC204 fraction collector with a multicolumn adapter (Gilson, Inc.; Middleton, Wis.). Radioactivity was determined by scintillation counting using a 1450 MicroBeta Trilux scintillation counter (Perkin Elmer Life Sciences-Wallac Oy; Turku, Finland) after addition of 0.15 ml Optiphase ‘SuperMix’ scintillation cocktail. Instrument efficiency was 40%.
# (§3) Data were analyzed using SigmaPlot 5.0 for DOS. Perfusion data were plotted as counts per minute versus fraction number. Fractions collected before and after the peak were used to calculate baseline as a single exponential decay. The calculated baseline was subtracted from the experimental data. Fractions that exceeded baseline by 10% or more were sunmmed to give total released cpm and then normalized to baseline to give units of release [(cpm-baseline)/baseline]. Agonist dose response data were fit to the Hill equation.
# [7] = system: αCtxMII-sensitive receptors (α6*)
# α4β2* (non-α6) nAChRs = target: T1, α4β2* (non-α6) nAChRs (Mus musculus, UniProt O70174+Q9ERK7); test: biochemical; format: biochemical
# T1 construct: from tissue; host or cells: striatal / olfactory tubercle synaptosomes of WT and α6L9′S mice
# T1 sequence (Q9ERK7 26-501): as the sequence (Q9ERK7 26-501, change not shown) above
# T1 sequence (O70174 31-629): as the sequence (O70174 31-629, change not shown) above
# Protocol: as §1, §2, §3
# α6* nAChRs [8] = target: T2, α6* nAChRs (Mus musculus, UniProt Q9ERK7+Q9R0W9); test: biochemical; format: biochemical
# T2 construct: from tissue
# T2 sequence (Q9R0W9 31-494): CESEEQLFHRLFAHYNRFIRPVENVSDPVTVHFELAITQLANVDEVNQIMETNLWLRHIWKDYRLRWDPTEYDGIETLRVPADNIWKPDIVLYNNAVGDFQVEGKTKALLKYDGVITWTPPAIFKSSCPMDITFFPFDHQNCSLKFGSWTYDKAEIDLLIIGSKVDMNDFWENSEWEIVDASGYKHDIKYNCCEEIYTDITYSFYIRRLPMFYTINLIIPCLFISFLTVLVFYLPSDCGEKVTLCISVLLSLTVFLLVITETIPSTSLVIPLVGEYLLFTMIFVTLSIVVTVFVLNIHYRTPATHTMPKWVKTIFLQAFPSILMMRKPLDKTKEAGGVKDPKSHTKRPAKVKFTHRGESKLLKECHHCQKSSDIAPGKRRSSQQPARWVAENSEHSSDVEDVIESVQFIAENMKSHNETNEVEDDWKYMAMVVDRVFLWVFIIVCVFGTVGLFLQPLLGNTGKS
# T2 sequence (Q8BMN3 31-464, further chain): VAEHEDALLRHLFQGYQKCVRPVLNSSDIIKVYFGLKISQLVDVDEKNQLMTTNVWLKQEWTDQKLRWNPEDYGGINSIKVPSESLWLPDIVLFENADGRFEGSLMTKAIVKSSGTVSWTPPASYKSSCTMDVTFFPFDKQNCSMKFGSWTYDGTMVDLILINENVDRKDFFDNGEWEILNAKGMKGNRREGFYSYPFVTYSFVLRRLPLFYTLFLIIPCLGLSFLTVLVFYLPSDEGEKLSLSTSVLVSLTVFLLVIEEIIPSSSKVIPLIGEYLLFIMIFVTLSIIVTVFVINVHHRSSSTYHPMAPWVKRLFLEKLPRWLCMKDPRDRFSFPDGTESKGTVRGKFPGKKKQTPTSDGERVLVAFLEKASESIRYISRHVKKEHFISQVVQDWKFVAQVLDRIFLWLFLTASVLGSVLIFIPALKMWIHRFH
# T2 sequence (Q9ERK7 26-501): as the sequence (Q9ERK7 26-501, change not shown) above
# Protocol: as §1, §2, §3
# α6* nAChRs [9] = target: T3, α6* nAChRs (Mus musculus, UniProt Q9ERK7+Q9R0W9, L280S); test: biochemical; format: biochemical
# T3 construct: from tissue
# T3 sequence (Q9ERK7 26-501, stated change not applied): as the sequence (Q9ERK7 26-501, change not shown) above
# T3 sequence (Q8BMN3 31-464, further chain): as the sequence (Q8BMN3 31-464, further chain) above
# T3 sequence (Q9R0W9 31-494 L280S): as the sequence (Q9R0W9 31-494) above, with L250S counted along it
# Protocol: as §1, §2, §3
# α4β2* nAChRs = α4β2* nAChRs (Mus musculus, UniProt O70174+Q9ERK7)
# α4β2* nAChRs, sequence (Q9ERK7 26-501): as the sequence (Q9ERK7 26-501, change not shown) above
# α4β2* nAChRs, sequence (O70174 31-629): as the sequence (O70174 31-629, change not shown) above
# Protocol: as §1, §2, §3
# nAChRs [10] = target: nAChRs (Mus musculus, UniProt O70174+Q9ERK7)
# nAChRs (Mus musculus, UniProt O70174+Q9ERK7), sequence (Q9ERK7 26-501): as the sequence (Q9ERK7 26-501, change not shown) above
# nAChRs (Mus musculus, UniProt O70174+Q9ERK7), sequence (O70174 31-629): as the sequence (O70174 31-629, change not shown) above
# Protocol: as §1, §2, §3
# α6* nAChRs [11] = system: α6* nAChRs
# Protocol: as §1, §2, §3
smiles,measurement,setting,value
"CN1CCCC1c1cccnc1 (single isomer, unassigned) [nicotine]",elimination half life,[1],~7 min
same,firing rate in response to local application,VTA DA neurons,significant increase in the firing rate
same,tolerance or sensitization: change in locomotor behavior after repeated injections,α6^L9′S mice,did not produce any change in locomotor behavior
same,αCtxMII-resistant 86Rb+ efflux,[2],unchanged
same,average responses (peak current) in GABA neurons,[3],< 10 pA
same,responses in WT DA and GABA neurons,[3],undetectable
same,inward currents elicited by puffs of 1 μM,[4],larger than those seen in WT neurons at any concentration
same,responses to locally applied nicotine in LC neurons,LC neurons (α6* nAChRs),larger responses
same,"hypothermia response, WT versus α6^L9′S mice",WT and α6^L9′S mice,No difference was found
same,concentration in the cerebrospinal fluid of smokers,[5],≤ 500 nM
same,"Rmax (±SEM), Total DA release",nAChRs [6],33.1 ± 2.1 and 36.0 ± 1.3 and 34.3 ± 1.7 and 20.9 ± 1.0 and 21.4 ± 0.9 and 20.8 ± 1.2
same,Total DA release by 10 μM nic (positive control),nAChRs [6],16.69 and 19.68 and 20.65 and 17.70 and 17.30 and 16.70
same,αCtxMII-sensitive 86Rb+ efflux,[7],hypersensitive to nicotine relative to WT
same,MII-resistant DA release by 10 μM nic (positive control),α4β2* (non-α6) nAChRs,14.55 and 8.75 and 10.78 and 15.07 and 8.91 and 10.26
same,MII-sensitive DA release by 10 μM nic (positive control),α6* nAChRs [8],3.19 and 1.63
same,"Rmax (±SEM), MII-sensitive DA release",α6* nAChRs [8],5.41 ± 0.54 and 7.03 ± 0.86
same,MII-sensitive DA release by 10 μM nic (positive control),α6* nAChRs [9],8.53 and 5.97 and 10.77 and 10.39
same,"Rmax (±SEM), MII-resistant GABA release",α4β2* nAChRs,1.40 ± 0.08 and 1.26 ± 0.08 and 1.30 ± 0.10
same,"Rmax (±SEM), Total GABA release",nAChRs [10],1.64 ± 0.32 and 1.25 ± 0.06 and 1.22 ± 0.11
same,"EC50 (±SEM), MII-sensitive GABA release",α6* nAChRs [11],no activity
same,"Rmax (±SEM), MII-sensitive GABA release",α6* nAChRs [11],no activity
